# Assay results taken from patent US5624923A, “Tricyclic diazepine vasopressin antagonists and oxytocin antagonists” (priority 1995, dated 1997).
# Experiments:
# Vasopressin V1 = Vasopressin V1 Antagonist Activity in Conscious Rats (vasopressin vasopressor response); assay type: in vivo, rat; parameters: Average Change: unit not given here; details: for % Inhibition / Average Change: SHR
# How it was run: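 Conscious rats are restrained supine, and under local 2% procaine a PE 10/20 cannula is passed through the ventral caudal tail artery into the lower abdominal aorta. The caudal vein is cannulated for intravenous dosing. Blood pressure is recorded with a Statham P23Db transducer, and vasopressin injections are repeated after compound dosing. Percent antagonism is calculated against the pre-drug vasopressor response taken as 100%.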
# Vasopressin V2 = Vasopressin V2 Antagonist Activity in Conscious Hydrated Rats; assay type: in vivo, rat; details: AVP 0.4 μg/kg i.p.
# How it was run: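 Four-hour urine output, osmolality and electrolytes (Na+, K+, Cl−) recorded in water-loaded rats (30 mL/kg deionized water orally) given AVP i.p. at 0.4 μg/kg. Test compounds were given orally at 0.1–100 mg/kg 1 h before AVP; 2–4 rats per compound.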
# Rat Hepatic V1 Receptors = target: T1, Rat Hepatic V1 Receptors (Rattus norvegicus, UniProt P30560); experiment: Binding Assay to Rat Hepatic V1 Receptors; details: for IC50: rat liver membranes, read-out: V1 IC50; for inhibition at 10 µM: 2 h, rat
# T1 construct: Rat liver plasma membranes expressing the vasopressin V1 receptor subtypes; from tissue; host or cells: rat liver plasma membranes
# T1 sequence (P30560 whole entry): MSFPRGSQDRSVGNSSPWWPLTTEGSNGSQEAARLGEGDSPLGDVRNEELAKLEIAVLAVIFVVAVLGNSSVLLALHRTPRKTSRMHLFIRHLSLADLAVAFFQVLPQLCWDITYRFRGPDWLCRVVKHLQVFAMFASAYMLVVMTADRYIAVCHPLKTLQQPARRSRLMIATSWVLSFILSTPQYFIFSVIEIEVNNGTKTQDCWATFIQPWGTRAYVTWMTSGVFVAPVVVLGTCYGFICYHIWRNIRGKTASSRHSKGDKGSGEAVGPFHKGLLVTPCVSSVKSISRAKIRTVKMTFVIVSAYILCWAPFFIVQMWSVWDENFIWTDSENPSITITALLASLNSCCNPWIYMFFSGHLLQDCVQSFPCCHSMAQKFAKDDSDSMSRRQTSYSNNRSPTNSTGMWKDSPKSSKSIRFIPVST
# [1] = 10 mg/kg i.v., VAS 0.01 i.u./kg, 30 min
# [2] = 10 mg/kg i.v., VAS 0.01 i.u./kg, 60 min
# [3] = 10 mg/kg i.v., VAS 0.01 i.u./kg, 90 min
# [4] = 10 mg/kg i.v., VAS 0.01 i.u./kg, 120 min
# [5] = 10 mg/kg i.v., VAS 0.01 i.u./kg, 180 min
# [6] = 10 mg/kg i.v., VAS 0.01 i.u./kg, 240 min
# [7] = 10 mg/kg i.v., VAS 0.01 i.u./kg, 300 min
# [8] = 10 mg/kg i.v., VAS 0.02 i.u./kg, 30 min
# [9] = 10 mg/kg i.v., VAS 0.02 i.u./kg, 60 min
# [10] = 10 mg/kg i.v., VAS 0.02 i.u./kg, 90 min
# [11] = 10 mg/kg i.v., VAS 0.02 i.u./kg, 120 min
# [12] = 10 mg/kg i.v., VAS 0.02 i.u./kg, 180 min
# [13] = 10 mg/kg i.v., VAS 0.02 i.u./kg, 240 min
# [14] = 10 mg/kg i.v., VAS 0.02 i.u./kg, 300 min
structure (smiles),measurement,setting,value
Cc1ccccc1C(=O)Nc1ccc(C(=O)N2Cc3cccn3Cc3ccccc32)c(Cl)c1 [Example 470],Max. % Inhibition,Vasopressin V1; 10 mg/kg i.v.,87%
same,Time (of max. % inhibition),Vasopressin V1; 10 mg/kg i.v.,180 min
same,Max. % Inhibition,Vasopressin V1; 30 mg/kg p.o.,69%
same,Time (of max. % inhibition),Vasopressin V1; 30 mg/kg p.o.,180 min
same,Osmolality,Vasopressin V2; 10 mg/kg orally,387 mOsm/kg
same,Urine Volume,Vasopressin V2; 10 mg/kg orally,17 ml/4 hrs
same,IC50,Rat Hepatic V1 Receptors,0.054 µM
O=C(Nc1ccc(C(=O)N2Cc3cccn3Cc3ccccc32)cc1)c1ccccc1Cl [Example 7],% Inhibition,Vasopressin V1; [1],87%
same,Average Change,Vasopressin V1; [1],6
same,% Inhibition,Vasopressin V1; [2],87%
same,Average Change,Vasopressin V1; [2],6
same,% Inhibition,Vasopressin V1; [3],82%
same,Average Change,Vasopressin V1; [3],8.5
same,% Inhibition,Vasopressin V1; [4],80%
same,Average Change,Vasopressin V1; [4],9.5
same,% Inhibition,Vasopressin V1; [5],63%
same,Average Change,Vasopressin V1; [5],17.5
same,% Inhibition,Vasopressin V1; [6],56%
same,Average Change,Vasopressin V1; [6],20.5
same,% Inhibition,Vasopressin V1; [7],57%
same,Average Change,Vasopressin V1; [7],20
same,% Inhibition,Vasopressin V1; [8],87%
same,Average Change,Vasopressin V1; [8],7.5
same,% Inhibition,Vasopressin V1; [9],86%
same,Average Change,Vasopressin V1; [9],8
same,% Inhibition,Vasopressin V1; [10],78%
same,Average Change,Vasopressin V1; [10],12.5
same,% Inhibition,Vasopressin V1; [11],77%
same,Average Change,Vasopressin V1; [11],13
same,% Inhibition,Vasopressin V1; [12],59%
same,Average Change,Vasopressin V1; [12],23
same,% Inhibition,Vasopressin V1; [13],46%
same,Average Change,Vasopressin V1; [13],30.5
same,% Inhibition,Vasopressin V1; [14],59%
same,Average Change,Vasopressin V1; [14],23
same,Osmolality,Vasopressin V2; 10 mg/kg orally,780 mOsm/kg
same,Urine Volume,Vasopressin V2; 10 mg/kg orally,9 ml/4 hrs
same,Osmolality,Vasopressin V2; 30 mg/kg orally,815 mOsm/kg
same,Urine Volume,Vasopressin V2; 30 mg/kg orally,12.4 ml/4 hrs
same,IC50,Rat Hepatic V1 Receptors,0.01 µM
"O=C(Nc1ccc(C(=O)N2Cc3cccn3Cc3ccccc32)cc1)c1ccc(Cl)cc1Cl [Example 6, N-[4-(5H-pyrrolo[2,1-c][1,4]benzodiazepin-10(11H)-ylcarbonyl)phenyl]-2,4-dichlorobenzamide]",% Inhibition,Vasopressin V1; [1],85%
same,Average Change,Vasopressin V1; [1],5.5
same,% Inhibition,Vasopressin V1; [2],79%
same,Average Change,Vasopressin V1; [2],7.5
same,% Inhibition,Vasopressin V1; [3],63%
same,Average Change,Vasopressin V1; [3],13.5
same,% Inhibition,Vasopressin V1; [4],59%
same,Average Change,Vasopressin V1; [4],15
same,% Inhibition,Vasopressin V1; [5],44%
same,Average Change,Vasopressin V1; [5],20.5
same,% Inhibition,Vasopressin V1; [6],34%
same,Average Change,Vasopressin V1; [6],24
same,% Inhibition,Vasopressin V1; [7],30%
same,Average Change,Vasopressin V1; [7],25.5
same,% Inhibition,Vasopressin V1; [8],62%
same,Average Change,Vasopressin V1; [8],16
same,% Inhibition,Vasopressin V1; [9],45%
same,Average Change,Vasopressin V1; [9],23
same,% Inhibition,Vasopressin V1; [10],36%
same,Average Change,Vasopressin V1; [10],27
same,% Inhibition,Vasopressin V1; [11],30%
same,Average Change,Vasopressin V1; [11],29.5
same,% Inhibition,Vasopressin V1; [12],17%
same,Average Change,Vasopressin V1; [12],35
same,% Inhibition,Vasopressin V1; [13],15%
same,Average Change,Vasopressin V1; [13],35.5
same,% Inhibition,Vasopressin V1; [14],14%
same,Average Change,Vasopressin V1; [14],36
same,Osmolality,Vasopressin V2; 1 mg/kg orally,970 mOsm/kg
same,Urine Volume,Vasopressin V2; 1 mg/kg orally,6 ml/4 hrs
same,Osmolality,Vasopressin V2; 3 mg/kg orally,519 ± 30 mOsm/kg
same,Urine Volume,Vasopressin V2; 3 mg/kg orally,15 ± 1.6 ml/4 hrs
same,Osmolality,Vasopressin V2; 10 mg/kg orally,346 ± 25 mOsm/kg
same,Urine Volume,Vasopressin V2; 10 mg/kg orally,20.4 ± 1.1 ml/4 hrs
same,Osmolality,Vasopressin V2; 30 mg/kg orally,616 ± 87 mOsm/kg
same,Urine Volume,Vasopressin V2; 30 mg/kg orally,17.9 ± 1.3 ml/4 hrs
same,IC50,Rat Hepatic V1 Receptors,0.023 µM
"O=C(Nc1ccc(C(=O)N2Cc3cccn3Cc3ccccc32)cc1)c1sccc1Cl [Example 476, N-[4-(5H-pyrrolo[2,1-c][1,4]benzodiazepin-10(11H)-ylcarbonyl)phenyl]-3-chlorothiophene-2-carboxamide]",Max. % Inhibition,Vasopressin V1; 10 mg/kg i.v.,78%
same,Time (of max. % inhibition),Vasopressin V1; 10 mg/kg i.v.,30 min
same,Max. % Inhibition,Vasopressin V1; 30 mg/kg p.o.,19%
same,Time (of max. % inhibition),Vasopressin V1; 30 mg/kg p.o.,180 min
same,Osmolality,Vasopressin V2; 10 mg/kg orally,1233 mOsm/kg
same,Urine Volume,Vasopressin V2; 10 mg/kg orally,5 ml/4 hrs
same,IC50,Rat Hepatic V1 Receptors,0.084 µM
"O=C(Nc1ccc(C(=O)N2Cc3ccc(CO)n3Cc3ccccc32)cc1)c1ccc(Cl)cc1Cl [Example 581, 2,4-Dichloro-N-[4-[[3-(hydroxymethyl)-5H-pyrrolo[2,1-c][1,4]benzodiazepin-10(11H)-yl]carbonyl]phenyl]benzamide]",Max. % Inhibition,Vasopressin V1; 10 mg/kg i.v.,94%
same,Time (of max. % inhibition),Vasopressin V1; 10 mg/kg i.v.,30 min
same,Max. % Inhibition,Vasopressin V1; 30 mg/kg p.o.,79%
same,Time (of max. % inhibition),Vasopressin V1; 30 mg/kg p.o.,30 min
same,Osmolality,Vasopressin V2; 10 mg/kg orally,941 ± 219 mOsm/kg
same,Urine Volume,Vasopressin V2; 10 mg/kg orally,4 ± 1.2 ml/4 hrs
same,IC50,Rat Hepatic V1 Receptors,0.021 µM
"CN(C)CN(C(=O)c1ccc(Cl)cc1Cl)c1ccc(C(=O)N2Cc3cccn3Cc3ccccc32)cc1 [Example 490, N-[(Dimethylamino)methyl]-N-[4-(5H-pyrrolo[2,1-c][1,4]benzodiazepin-10(11H)-ylcarbonyl)phenyl]-2,4-dichlorobenzamide]",Max. % Inhibition,Vasopressin V1; 10 mg/kg i.v.,74%
same,Time (of max. % inhibition),Vasopressin V1; 10 mg/kg i.v.,90 min
same,Max. % Inhibition,Vasopressin V1; 10 mg/kg p.o.,65%
same,Time (of max. % inhibition),Vasopressin V1; 10 mg/kg p.o.,120 min
same,Osmolality,Vasopressin V2; 10 mg/kg orally,487 ± 38 mOsm/kg
same,Urine Volume,Vasopressin V2; 10 mg/kg orally,71.5 ± 1.6 ml/4 hrs
same,IC50,Rat Hepatic V1 Receptors,0.014 µM
O=C(Nc1ccc(C(=O)N2Cc3cccn3Cc3ccccc32)c(Cl)c1)c1ccc(Cl)cc1Cl [Example 471],Max. % Inhibition,Vasopressin V1; 30 mg/kg i.v.,85%
same,Time (of max. % inhibition),Vasopressin V1; 30 mg/kg i.v.,90 min
same,Osmolality,Vasopressin V2; 10 mg/kg orally,507 ± 38 mOsm/kg
same,Urine Volume,Vasopressin V2; 10 mg/kg orally,14.1 ± 1.9 ml/4 hrs
same,IC50,Rat Hepatic V1 Receptors,0.045 µM
"Cc1ccccc1C(=O)Nc1ccc(C(=O)N2Cc3ccc(C(=O)C(F)(F)F)n3Cc3ccccc32)c(Cl)c1 [Example 595, N-[4-[[3-(Trifluoroacetyl)-5H-pyrrolo[2,1-c][1,4]benzodiazepin-10(11H)-yl]carbonyl]-3-chlorophenyl]-2-methylbenzamide]",Max. % Inhibition,Vasopressin V1; 30 mg/kg i.v.,44%
same,Time (of max. % inhibition),Vasopressin V1; 30 mg/kg i.v.,90 min
same,Osmolality,Vasopressin V2; 10 mg/kg orally,1474 mOsm/kg
same,Urine Volume,Vasopressin V2; 10 mg/kg orally,8.3 ml/4 hrs
same,inhibition at 10 µM,Rat Hepatic V1 Receptors,57%
"O=C(Nc1ccc(C(=O)N2Cc3cccn3Cc3ccccc32)cc1)c1cccc(C(F)(F)F)c1 [Example 474, N-[4-(5H-pyrrolo[2,1-c][1,4]benzodiazepin-10(11H)-ylcarbonyl)phenyl]-3-(trifluoromethyl)benzamide]",Max. % Inhibition,Vasopressin V1; 30 mg/kg i.v.,80%
same,Time (of max. % inhibition),Vasopressin V1; 30 mg/kg i.v.,60 min
same,Osmolality,Vasopressin V2; 10 mg/kg orally,619 mOsm/kg
same,Urine Volume,Vasopressin V2; 10 mg/kg orally,11.5 ml/4 hrs
same,IC50,Rat Hepatic V1 Receptors,0.087 µM
"Cc1c(F)cccc1C(=O)Nc1ccc(C(=O)N2Cc3cccn3Cc3ccccc32)c(Cl)c1 [Example 481, N-[4-(5H-pyrrolo[2,1-c][1,4]benzodiazepin-10(11H)-ylcarbonyl)-3-chlorophenyl]-3-fluoro-2-methylbenzamide]",Max. % Inhibition,Vasopressin V1; 30 mg/kg p.o.,58%
same,Time (of max. % inhibition),Vasopressin V1; 30 mg/kg p.o.,80 min
same,Osmolality,Vasopressin V2; 10 mg/kg orally,473 mOsm/kg
same,Urine Volume,Vasopressin V2; 10 mg/kg orally,17.2 ml/4 hrs
same,IC50,Rat Hepatic V1 Receptors,1 µM
"Cc1c(F)cccc1C(=O)Nc1ccc(C(=O)N2Cc3ccnn3Cc3ccccc32)cc1 [Example 517, N-[4-(4H-Pyrazolo[5,1-c][1,4]benzodiazepin-5(10H)-ylcarbonyl)phenyl]-3-fluoro-2-methylbenzamide]",Max. % Inhibition,Vasopressin V1; 10 mg/kg i.v.,81%
same,Time (of max. % inhibition),Vasopressin V1; 10 mg/kg i.v.,90 min
same,Osmolality,Vasopressin V2; 10 mg/kg orally,411 mOsm/kg
same,Urine Volume,Vasopressin V2; 10 mg/kg orally,14.7 ml/4 hrs
same,IC50,Rat Hepatic V1 Receptors,0.21 µM
"O=C(CN1CCOCC1)Nc1ccc(C(=O)N2Cc3cccn3Cc3ccccc32)cc1 [Example 590, N-[4-(5H-pyrrolo[2,1-c][1,4]benzodiazepin-10(11H)-ylcarbonyl)phenyl]-4-morpholineacetamide]",Max. % Inhibition,Vasopressin V1; 30 mg/kg i.v.,89%
same,Time (of max. % inhibition),Vasopressin V1; 30 mg/kg i.v.,120 min
same,Osmolality,Vasopressin V2; 10 mg/kg orally,1355 mOsm/kg
same,Urine Volume,Vasopressin V2; 10 mg/kg orally,3 ml/4 hrs
same,inhibition at 10 µM,Rat Hepatic V1 Receptors,89%
